Laboratory results from US11780893B2, “Kv1.3 blockers” (Zealand Pharma A/S, priority 2019, dated 2023).
pIC50: −log10 of the molar value. Bridge positions count the residues as written; N and C are the ends. Square brackets hold non-standard residues; d marks the D form. Peptide text beside a SMILES is read from it. Nle = CCCC[C@H](N)C(=O)O

biological target: T1, human Kv1.3 voltage-gated K+ channel (Homo sapiens, UniProt P22001); experiment: cell-based; conditions: inhibition of thallium flux, CHO-DUKX cells with human Kv1.3; read-out: IC50
T1 construct: host or cells: CHO-DUKX
T1 sequence (P22001 whole entry): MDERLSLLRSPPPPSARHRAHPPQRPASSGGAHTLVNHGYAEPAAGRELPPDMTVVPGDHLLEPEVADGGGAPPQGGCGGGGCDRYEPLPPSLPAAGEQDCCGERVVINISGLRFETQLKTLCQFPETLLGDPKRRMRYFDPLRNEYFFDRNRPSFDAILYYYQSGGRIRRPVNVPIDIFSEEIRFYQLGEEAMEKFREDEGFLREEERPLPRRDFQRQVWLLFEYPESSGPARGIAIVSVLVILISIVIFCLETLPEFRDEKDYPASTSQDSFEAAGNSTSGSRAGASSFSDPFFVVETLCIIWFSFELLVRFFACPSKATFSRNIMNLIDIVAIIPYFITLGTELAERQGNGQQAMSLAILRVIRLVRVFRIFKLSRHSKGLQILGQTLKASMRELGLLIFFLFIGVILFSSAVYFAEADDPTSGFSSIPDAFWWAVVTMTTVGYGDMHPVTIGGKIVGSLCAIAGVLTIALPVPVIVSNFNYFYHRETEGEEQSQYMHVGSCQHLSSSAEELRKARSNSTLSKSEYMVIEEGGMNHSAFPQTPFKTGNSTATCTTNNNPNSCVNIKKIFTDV

SMILES | pIC50
CC[C@H](C)[C@@H]1NC(=O)[C@H](C)NC(=O)[C@H](CCCCN)NC(=O)[C@H](CC(C)C)NC(=O)[C@@H]2CSSC[C@@H](C(=O)N[C@@H](Cc3ccc(O)cc3)C(=O)N3CCC[C@H]3C(=O)N[C@@H](CCCNC(=N)N)C(=O)O)NC(=O)[C@H](CCCCN)NC(=O)[C@@H]3CSSC[C@H](NC(=O)[C@H](CCC(=O)O)NC(=O)[C@H](C(C)C)NC(=O)[C@H](CO)NC(=O)[C@H](C)NC(=O)[C@H](CO)NC(=O)[C@@H](NC(=O)[C@H](CCCNC(=N)N)NC(=O)[C@H](CCSC)NC(=O)[C@H](CC(=O)O)NC(=O)[C@H](CCSC)NC(=O)[C@H](CC(N)=O)NC(=O)CNC(=O)[C@@H](N)CO)CSSC[C@H](NC(=O)[C@H](CCCCN)NC(=O)CNC(=O)[C@H](Cc4ccccc4)NC(=O)[C@H]([C@@H](C)CC)NC(=O)[C@H](CO)NC(=O)CNC1=O)C(=O)N[C@@H](CCSC)C(=O)N[C@@H](CC(N)=O)C(=O)N[C@@H](CCCCN)C(=O)N[C@@H](CCCCN)C(=O)N3)C(=O)N[C@@H](CCCCN)C(=O)N[C@@H](CCC(N)=O)C(=O)N[C@@H](CCCCN)C(=O)N2 [Compound 13] (H-SGNMDMRCSASVECKQKCLKAIGSIFGKCMNKKCKCYPR-OH; disulfide 8-29, 14-34, 18-36) | 9.59
CCCC[C@H](NC(=O)[C@@H](N)CC(N)=O)C(=O)N[C@@H](CC(=O)O)C(=O)N[C@@H](CCSC)C(=O)N[C@@H](CCCNC(=N)N)C(=O)N[C@H]1CSSC[C@@H]2NC(=O)[C@H](CCCCN)NC(=O)CNC(=O)[C@H](Cc3ccccc3)NC(=O)[C@H]([C@@H](C)CC)NC(=O)[C@H](CO)NC(=O)CNC(=O)[C@H]([C@@H](C)CC)NC(=O)[C@H](C)NC(=O)[C@H](CCCCN)NC(=O)[C@H](CC(C)C)NC(=O)[C@@H]3CSSC[C@@H](C(=O)N[C@@H](Cc4ccc(O)cc4)C(=O)N4CCC[C@H]4C(=O)N[C@@H](CCCNC(=N)N)C(N)=O)NC(=O)[C@H](CCCCN)NC(=O)[C@H](CSSC[C@H](NC(=O)[C@H](CCC(=O)O)NC(=O)[C@H](C(C)C)NC(=O)[C@H](CO)NC(=O)[C@H](C)NC(=O)[C@H](CO)NC1=O)C(=O)N[C@@H](CCCCN)C(=O)N[C@@H](CCC(N)=O)C(=O)N[C@@H](CCCCN)C(=O)N3)NC(=O)[C@H](CCCCN)NC(=O)[C@H](CCCCN)NC(=O)[C@H](CC(N)=O)NC(=O)[C@H](CCSC)NC2=O [Compound 14] (H-N[Nle]DMRCSASVECKQKCLKAIGSIFGKCMNKKCKCYPR-NH2; disulfide 6-27, 12-32, 16-34) | 9.80
CCCC[C@H](NC(=O)[C@H](CC(=O)O)NC(=O)[C@H](CCSC)NC(=O)[C@@H](N)CC(N)=O)C(=O)N[C@@H](CCCNC(=N)N)C(=O)N[C@H]1CSSC[C@@H]2NC(=O)[C@H](CCCCN)NC(=O)CNC(=O)[C@H](Cc3ccccc3)NC(=O)[C@H]([C@@H](C)CC)NC(=O)[C@H](CO)NC(=O)CNC(=O)[C@H]([C@@H](C)CC)NC(=O)[C@H](C)NC(=O)[C@H](CCCCN)NC(=O)[C@H](CC(C)C)NC(=O)[C@@H]3CSSC[C@@H](C(=O)N[C@@H](Cc4ccc(O)cc4)C(=O)N4CCC[C@H]4C(=O)N[C@@H](CCCNC(=N)N)C(N)=O)NC(=O)[C@H](CCCCN)NC(=O)[C@H](CSSC[C@H](NC(=O)[C@H](CCC(=O)O)NC(=O)[C@H](C(C)C)NC(=O)[C@H](CO)NC(=O)[C@H](C)NC(=O)[C@H](CO)NC1=O)C(=O)N[C@@H](CCCCN)C(=O)N[C@@H](CCC(N)=O)C(=O)N[C@@H](CCCCN)C(=O)N3)NC(=O)[C@H](CCCCN)NC(=O)[C@H](CCCCN)NC(=O)[C@H](CC(N)=O)NC(=O)[C@H](CCSC)NC2=O [Compound 15] (H-NMD[Nle]RCSASVECKQKCLKAIGSIFGKCMNKKCKCYPR-NH2; disulfide 6-27, 12-32, 16-34) | 9.92
CC[C@H](C)[C@@H]1NC(=O)[C@H](CCCCN)NC(=O)[C@H](CC(C)C)NC(=O)[C@@H]2CSSC[C@@H](C(=O)N[C@@H](Cc3ccc(O)cc3)C(=O)N3CCC[C@H]3C(=O)N[C@@H](CCCNC(=N)N)C(N)=O)NC(=O)[C@H](CCCCN)NC(=O)[C@@H]3CSSC[C@H](NC(=O)[C@H](CCC(=O)O)NC(=O)[C@H](C(C)C)NC(=O)[C@H](CO)NC(=O)[C@H](C)NC(=O)[C@H](CO)NC(=O)[C@@H](NC(=O)[C@H](CCCNC(=N)N)NC(=O)[C@H](CCSC)NC(=O)[C@H](CC(=O)O)NC(=O)[C@H](CCSC)NC(=O)[C@@H](N)CC(N)=O)CSSC[C@H](NC(=O)[C@H](CCCCN)NC(=O)CNC(=O)[C@H](Cc4ccccc4)NC(=O)[C@H]([C@@H](C)CC)NC(=O)[C@H](CO)NC(=O)CNC1=O)C(=O)N[C@@H](CCSC)C(=O)N[C@@H](CC(N)=O)C(=O)N[C@@H](CCCCN)C(=O)N[C@@H](CCCCN)C(=O)N3)C(=O)N[C@@H](CCCCN)C(=O)N[C@@H](CCC(N)=O)C(=O)N[C@@H](CCCCN)C(=O)N2 [Compound 57] (H-NMDMRCSASVECKQKCLKIGSIFGKCMNKKCKCYPR-NH2; disulfide 6-26, 12-31, 16-33) | 9.96
CC[C@H](C)[C@@H]1NC(=O)[C@H](CO)NC(=O)CNC(=O)[C@H](CCC(=O)O)NC(=O)[C@H](C)NC(=O)[C@H](CCCCN)NC(=O)[C@H](CC(C)C)NC(=O)[C@@H]2CSSC[C@@H](C(=O)N[C@@H](Cc3ccc(O)cc3)C(=O)N3CCC[C@H]3C(=O)N[C@@H](CCCNC(=N)N)C(N)=O)NC(=O)[C@H](CCCCN)NC(=O)[C@@H]3CSSC[C@H](NC(=O)[C@H](CCC(=O)O)NC(=O)[C@H](C(C)C)NC(=O)[C@H](CO)NC(=O)[C@H](C)NC(=O)[C@H](CO)NC(=O)[C@@H](NC(=O)[C@H](CCCNC(=N)N)NC(=O)[C@H](CCSC)NC(=O)[C@H](CC(=O)O)NC(=O)[C@H](CCSC)NC(=O)[C@@H](N)CC(N)=O)CSSC[C@H](NC(=O)[C@H](CCCCN)NC(=O)CNC(=O)[C@H](Cc4ccccc4)NC1=O)C(=O)N[C@@H](CCSC)C(=O)N[C@@H](CC(N)=O)C(=O)N[C@@H](CCCCN)C(=O)N[C@@H](CCCCN)C(=O)N3)C(=O)N[C@@H](CCCCN)C(=O)N[C@@H](CCC(N)=O)C(=O)N[C@@H](CCCCN)C(=O)N2 [Compound 59] (H-NMDMRCSASVECKQKCLKAEGSIFGKCMNKKCKCYPR-NH2; disulfide 6-27, 12-32, 16-34) | 10.46
CC[C@H](C)[C@@H]1NC(=O)[C@H](CO)NC(=O)CNC(=O)[C@H](CCCNC(=N)N)NC(=O)[C@H](C)NC(=O)[C@H](CCCCN)NC(=O)[C@H](CC(C)C)NC(=O)[C@@H]2CSSC[C@@H](C(=O)N[C@@H](Cc3ccc(O)cc3)C(=O)N3CCC[C@H]3C(=O)N[C@@H](CCCNC(=N)N)C(N)=O)NC(=O)[C@H](CCCCN)NC(=O)[C@@H]3CSSC[C@H](NC(=O)[C@H](CCC(=O)O)NC(=O)[C@H](C(C)C)NC(=O)[C@H](CO)NC(=O)[C@H](C)NC(=O)[C@H](CO)NC(=O)[C@@H](NC(=O)[C@H](CCCNC(=N)N)NC(=O)[C@H](CCSC)NC(=O)[C@H](CC(=O)O)NC(=O)[C@H](CCSC)NC(=O)[C@@H](N)CC(N)=O)CSSC[C@H](NC(=O)[C@H](CCCCN)NC(=O)CNC(=O)[C@H](Cc4ccccc4)NC1=O)C(=O)N[C@@H](CCSC)C(=O)N[C@@H](CC(N)=O)C(=O)N[C@@H](CCCCN)C(=O)N[C@@H](CCCCN)C(=O)N3)C(=O)N[C@@H](CCCCN)C(=O)N[C@@H](CCC(N)=O)C(=O)N[C@@H](CCCCN)C(=O)N2 [Compound 60] (H-NMDMRCSASVECKQKCLKARGSIFGKCMNKKCKCYPR-NH2; disulfide 6-27, 12-32, 16-34) | 10.46
CC[C@H](C)[C@@H]1NC(=O)[C@H](CO)NC(=O)CNC(=O)[C@H](C)NC(=O)[C@H](CCCCN)NC(=O)[C@H](CC(C)C)NC(=O)[C@@H]2CSSC[C@@H](C(=O)N[C@@H](Cc3ccc(O)cc3)C(=O)N3CCC[C@H]3C(=O)N[C@@H](CCCNC(=N)N)C(N)=O)NC(=O)[C@H](CCCCN)NC(=O)[C@@H]3CSSC[C@H](NC(=O)[C@H](CCC(=O)O)NC(=O)[C@H](C(C)C)NC(=O)[C@H](CO)NC(=O)[C@H](C)NC(=O)[C@H](CO)NC(=O)[C@@H](NC(=O)[C@H](CCCNC(=N)N)NC(=O)[C@H](CCSC)NC(=O)[C@H](CC(=O)O)NC(=O)[C@H](CCSC)NC(=O)[C@@H](N)CC(N)=O)CSSC[C@H](NC(=O)[C@H](CCCCN)NC(=O)CNC(=O)[C@H](Cc4ccccc4)NC1=O)C(=O)N[C@@H](CCSC)C(=O)N[C@@H](CC(N)=O)C(=O)N[C@@H](CCCCN)C(=O)N[C@@H](CCCCN)C(=O)N3)C(=O)N[C@@H](CCCCN)C(=O)N[C@@H](CCC(N)=O)C(=O)N[C@@H](CCCCN)C(=O)N2 [Compound 61] (H-NMDMRCSASVECKQKCLKAGSIFGKCMNKKCKCYPR-NH2; disulfide 6-26, 12-31, 16-33) | 9.40
CCCC[C@H](NC(=O)[C@H](CC(=O)O)NC(=O)[C@H](CCCC)NC(=O)[C@@H](N)CO)C(=O)N[C@@H](CCCNC(=N)N)C(=O)N[C@H]1CSSC[C@@H]2NC(=O)[C@H](CCCCN)NC(=O)CNC(=O)[C@H](Cc3ccccc3)NC(=O)[C@H]([C@@H](C)CC)NC(=O)[C@H](CO)NC(=O)CNC(=O)[C@H]([C@@H](C)CC)NC(=O)[C@H](C)NC(=O)CNC(=O)[C@H](CC(C)C)NC(=O)[C@@H]3CSSC[C@@H](C(=O)N[C@@H](Cc4ccc(O)cc4)C(=O)N4CCC[C@H]4C(=O)N[C@@H](CCCNC(=N)N)C(N)=O)NC(=O)[C@H](CCCCN)NC(=O)[C@H](CSSC[C@H](NC(=O)[C@H](CCC(=O)O)NC(=O)[C@H](C(C)C)NC(=O)[C@H](CO)NC(=O)[C@H](C)NC(=O)[C@H](CO)NC1=O)C(=O)N[C@@H](CCCCN)C(=O)N[C@@H](CCC(N)=O)C(=O)N[C@@H](CCCCN)C(=O)N3)NC(=O)[C@H](CCCCN)NC(=O)[C@H](CCCCN)NC(=O)[C@H](CC(N)=O)NC(=O)[C@H](CCSC)NC2=O [Compound 77] (H-S[Nle]D[Nle]RCSASVECKQKCLGAIGSIFGKCMNKKCKCYPR-NH2; disulfide 6-27, 12-32, 16-34) | 9.89
